Where a SMILES comes first, the peptide text is derived from it.
Assays:
[1] = biological target: T1, purified rabbit renal NEP (Oryctolagus cuniculus, UniProt P08049); experiment: Substance P catabolism by purified rabbit renal NEP; type: biochemical; conditions: substance P as substrate, read-out: inhibition of substance P catabolism by the soluble enzyme
T1 construct: purified rabbit renal NEP; from tissue; host or cells: rabbit kidney (purified enzyme)
T1 sequence (P08049 1-750): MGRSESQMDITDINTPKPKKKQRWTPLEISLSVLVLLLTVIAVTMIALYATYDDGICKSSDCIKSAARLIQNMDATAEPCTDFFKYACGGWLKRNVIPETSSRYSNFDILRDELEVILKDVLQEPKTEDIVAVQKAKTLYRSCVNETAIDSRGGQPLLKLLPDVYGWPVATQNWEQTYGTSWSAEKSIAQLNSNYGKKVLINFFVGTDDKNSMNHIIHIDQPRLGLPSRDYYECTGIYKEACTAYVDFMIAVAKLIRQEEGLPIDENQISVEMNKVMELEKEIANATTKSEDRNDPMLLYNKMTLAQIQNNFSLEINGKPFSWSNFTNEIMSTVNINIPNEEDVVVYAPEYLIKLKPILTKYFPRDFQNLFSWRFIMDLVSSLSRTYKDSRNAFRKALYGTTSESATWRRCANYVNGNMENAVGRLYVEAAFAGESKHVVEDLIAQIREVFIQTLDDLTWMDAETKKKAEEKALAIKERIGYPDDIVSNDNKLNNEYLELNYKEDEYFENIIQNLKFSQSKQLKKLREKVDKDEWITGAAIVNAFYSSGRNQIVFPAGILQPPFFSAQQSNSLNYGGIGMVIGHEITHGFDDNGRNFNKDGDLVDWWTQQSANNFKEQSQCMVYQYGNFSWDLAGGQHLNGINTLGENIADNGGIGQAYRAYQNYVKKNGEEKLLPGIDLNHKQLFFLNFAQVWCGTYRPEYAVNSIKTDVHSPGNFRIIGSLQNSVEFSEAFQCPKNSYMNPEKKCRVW

NEP = biological target: T2, NEP (Rattus norvegicus, UniProt P07861); experiment: Kinetic analysis of inhibition of substance P catabolism by rat renal membranes; type: biochemical
T2 construct: peripheral tissue membrane preparations that are known to be enriched in NEP-peptidase; from tissue; host or cells: rat renal outer medulla/kidney, intestine mucosa, placenta, prostate, dental and bone tissues, submandibular gland (membrane preparations)
T2 sequence (P07861 2-750): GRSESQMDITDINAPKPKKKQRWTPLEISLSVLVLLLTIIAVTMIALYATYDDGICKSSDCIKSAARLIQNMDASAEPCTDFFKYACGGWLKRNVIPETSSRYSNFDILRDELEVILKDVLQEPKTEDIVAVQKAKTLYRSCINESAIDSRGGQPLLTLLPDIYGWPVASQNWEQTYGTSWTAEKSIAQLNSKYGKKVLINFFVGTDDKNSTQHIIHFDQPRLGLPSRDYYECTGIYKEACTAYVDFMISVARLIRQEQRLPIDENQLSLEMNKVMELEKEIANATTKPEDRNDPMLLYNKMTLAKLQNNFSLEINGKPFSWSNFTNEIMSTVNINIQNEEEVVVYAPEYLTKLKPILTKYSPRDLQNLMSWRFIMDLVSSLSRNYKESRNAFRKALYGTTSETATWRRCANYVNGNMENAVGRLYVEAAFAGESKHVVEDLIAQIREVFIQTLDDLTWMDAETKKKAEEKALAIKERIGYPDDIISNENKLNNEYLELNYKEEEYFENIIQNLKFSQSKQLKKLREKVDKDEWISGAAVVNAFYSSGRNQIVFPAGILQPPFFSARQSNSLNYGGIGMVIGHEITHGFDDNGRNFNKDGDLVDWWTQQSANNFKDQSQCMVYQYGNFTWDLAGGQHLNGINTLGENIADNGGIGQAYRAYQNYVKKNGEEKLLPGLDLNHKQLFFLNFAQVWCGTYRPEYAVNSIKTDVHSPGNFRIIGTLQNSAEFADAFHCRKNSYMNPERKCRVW
Procedure: The inhibitory potency of sialophin was measured by using substance P as substrate at concentrations indicated for A and B, and at 14-24 nM (blank triangle) or 56-105 nM (black triangle) for FIG. 5-C. Concentrations of inhibitor for FIG. 5-A and FIG. 5-B were 0 (black circles), 1500 (blank circle) and 4500 nM (blank diamond). Each point of the untransformed and double reciprocal plots represents the mean of 2 independent determinations of duplicate. Experiments were performed at 25° C. in 250 μl Tris-HCl buffer (50 mM pH 7.4) under initial velocity measurement conditions.
In order to determine inhibitor modality, all the measures of initial velocity of the renal enzymatic reaction were plotted versus substrate concentration for several fixed inhibitor concentrations or versus inhibitor concentration for fixed substrate concentrations.

Chelating-FPLC analyses = type: physicochemical
Source text: Otherwise, tissue-uptake of the sialorphin peptide involves a complex molecular species, including a cation mineral element, as the peptide was only recovered in the presence of a strong divalent metal ion chelating agent (Rougeot, C. et al. (1997), American Journal of Physiology 273, […]-20). […] The zinc ion, an essential component of the NEP catalytic site, is a common target of synthetic potent NEP inhibitors described elsewhere.

inhibition at 5 µM [1]: 46%
raising of the apparent Km of the enzyme for substrate (NEP; 0, 1500 and 4500 nM inhibitor, substance P substrate, rat renal membranes): 2-5 fold
inhibitor modality (NEP; untransformed, double-reciprocal and Dixon plots, [3H] substance P, renal membrane, 25° C.): competitive inhibition
Compound: N=C(N)NCCC[C@H](NC(=O)[C@@H]1CCCN1C(=O)[C@H](CC(N)=O)NC(=O)[C@H](Cc1c[nH]cn1)NC(=O)[C@@H](N)CCC(N)=O)C(=O)O [sialorphin, Gln-His-Asn-Pro-Arg] (H-QHNPR-OH; N-terminus and C-terminus assumed)
zinc-chelating property (Chelating-FPLC analyses): selective and strong zinc-chelating group
